From ChEMBL document CHEMBL2385022, “Therapeutic and pharmacokinetic characterizations of an anti-amyloidogenic bis-styrylbenzene derivative for Alzheimer's disease treatment” (Bioorg Med Chem Lett, 2013)
Active and inactive are the calls of the source. No cut-off for these calls is given here.

Columns and labels:
Rattus norvegicus [1] = experiment: Acute toxicity in Sprague-Dawley rat assessed as mortality at 500 to 2000 mg/kg, po after 14 days; assay type: organism-based; design: dose 500-2000 mg/kg, route oral; conditions: in vivo, 336 h
[2] = target: Amyloid-beta precursor protein (Homo sapiens) (UniProt P05067); experiment: Inhibition of amyloid beta (1-42) fibril aggregation (unknown origin) at 100 uM after 20 hrs by transmission electron microscopic analysis
Chain of Amyloid-beta precursor protein (Homo sapiens) (P05067 whole entry): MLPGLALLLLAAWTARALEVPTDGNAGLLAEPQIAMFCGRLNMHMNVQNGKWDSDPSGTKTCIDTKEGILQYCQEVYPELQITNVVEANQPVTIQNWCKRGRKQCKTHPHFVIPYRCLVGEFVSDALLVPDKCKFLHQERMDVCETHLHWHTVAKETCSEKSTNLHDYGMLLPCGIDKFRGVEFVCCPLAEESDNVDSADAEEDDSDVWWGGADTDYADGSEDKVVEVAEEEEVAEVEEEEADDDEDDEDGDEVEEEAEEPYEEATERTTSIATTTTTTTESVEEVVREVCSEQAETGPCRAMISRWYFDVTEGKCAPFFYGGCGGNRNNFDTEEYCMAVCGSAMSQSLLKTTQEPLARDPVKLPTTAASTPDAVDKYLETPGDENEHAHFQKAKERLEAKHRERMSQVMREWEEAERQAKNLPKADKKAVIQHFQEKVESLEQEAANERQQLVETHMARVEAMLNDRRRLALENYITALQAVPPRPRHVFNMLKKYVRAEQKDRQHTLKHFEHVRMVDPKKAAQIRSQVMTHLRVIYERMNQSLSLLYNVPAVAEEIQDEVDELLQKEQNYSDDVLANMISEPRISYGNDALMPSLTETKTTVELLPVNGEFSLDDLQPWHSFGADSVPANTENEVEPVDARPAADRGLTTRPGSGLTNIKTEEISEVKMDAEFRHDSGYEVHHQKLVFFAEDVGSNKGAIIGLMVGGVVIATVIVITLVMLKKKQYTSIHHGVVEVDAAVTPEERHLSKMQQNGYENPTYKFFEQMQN

Rattus norvegicus [3] = experiment: Toxicity in Sprague-Dawley rat assessed as change in body weight at 2000 mg/kg, po after 14 days (reference value: 199.1 +/- 4.8 g); assay type: organism-based; design: dose 2000 mg/kg, route oral; conditions: in vivo, 336 h
hERG (KCNH2) = hERG (KCNH2) (Homo sapiens, UniProt Q12809); experiment: Inhibition of human ERG in HEK293 cells at 10 uM by patch clamp assay relative to control; assay type: cell-based; conditions: HEK293 cells expressing human ERG
Chain of hERG (KCNH2) (Q12809 whole entry, the tested form may be a part): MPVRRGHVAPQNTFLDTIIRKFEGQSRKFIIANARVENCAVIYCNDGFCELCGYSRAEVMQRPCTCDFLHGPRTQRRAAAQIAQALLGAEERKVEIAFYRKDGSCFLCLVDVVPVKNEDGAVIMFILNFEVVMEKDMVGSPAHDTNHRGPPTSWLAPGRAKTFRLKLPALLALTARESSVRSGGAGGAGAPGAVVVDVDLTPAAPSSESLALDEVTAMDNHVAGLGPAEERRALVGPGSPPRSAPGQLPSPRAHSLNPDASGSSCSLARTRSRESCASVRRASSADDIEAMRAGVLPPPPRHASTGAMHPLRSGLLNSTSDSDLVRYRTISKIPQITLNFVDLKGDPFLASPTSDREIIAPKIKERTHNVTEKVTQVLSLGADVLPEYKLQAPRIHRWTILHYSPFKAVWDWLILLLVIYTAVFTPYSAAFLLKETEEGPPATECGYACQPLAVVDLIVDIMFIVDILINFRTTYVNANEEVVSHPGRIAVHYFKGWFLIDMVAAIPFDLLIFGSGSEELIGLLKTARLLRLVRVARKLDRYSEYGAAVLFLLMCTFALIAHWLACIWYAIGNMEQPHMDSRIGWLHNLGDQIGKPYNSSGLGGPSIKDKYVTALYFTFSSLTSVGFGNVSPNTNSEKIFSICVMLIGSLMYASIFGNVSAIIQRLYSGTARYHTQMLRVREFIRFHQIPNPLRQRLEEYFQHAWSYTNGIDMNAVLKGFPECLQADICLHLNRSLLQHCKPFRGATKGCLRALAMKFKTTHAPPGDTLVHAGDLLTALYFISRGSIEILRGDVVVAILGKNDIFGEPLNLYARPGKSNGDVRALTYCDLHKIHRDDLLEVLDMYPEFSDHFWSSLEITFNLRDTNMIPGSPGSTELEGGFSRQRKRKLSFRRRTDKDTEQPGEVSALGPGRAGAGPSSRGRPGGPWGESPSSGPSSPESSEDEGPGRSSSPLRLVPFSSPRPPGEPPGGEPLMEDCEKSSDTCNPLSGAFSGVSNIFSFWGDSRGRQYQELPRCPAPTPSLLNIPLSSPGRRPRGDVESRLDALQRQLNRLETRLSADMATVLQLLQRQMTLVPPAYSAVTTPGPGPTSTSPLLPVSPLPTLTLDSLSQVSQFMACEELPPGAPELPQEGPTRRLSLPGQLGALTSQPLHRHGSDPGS

Mus musculus [4] = experiment: Cognitive enhancing effect in amyloid beta (1-42) infused ICR mouse assessed as increase in alternation behavior at 30 mg/kg/day, ip administered 1 day prior to amyloid beta (1-42) infusion and continued for 6 days measured on day 6 by Y-maze test (reference value: 64.1%); assay type: functional; conditions: route intraperitoneal
Rattus norvegicus [5] = experiment: Toxicity in Sprague-Dawley rat assessed as change in body weight at 500 mg/kg, po after 1 day (reference value: 130.6 +/- 4.6 g); assay type: organism-based; design: dose 500 mg/kg, route oral; conditions: in vivo, 24 h
Rattus norvegicus [6] = experiment: Toxicity in Sprague-Dawley rat assessed as change in body weight at 1000 mg/kg, po after 10 days (reference value: 175.9 +/- 5.1 g); assay type: organism-based; design: dose 1000 mg/kg, route oral; conditions: in vivo, 240 h
Rattus norvegicus [7] = experiment: Toxicity in Sprague-Dawley rat assessed as change in body weight at 1000 mg/kg, po after 14 days (reference value: 199.1 +/- 4.8 g); assay type: organism-based; design: dose 1000 mg/kg, route oral; conditions: in vivo, 336 h
Rattus norvegicus [8] = experiment: Toxicity in Sprague-Dawley rat assessed as change in body weight at 1000 mg/kg, po after 1 day (reference value: 130.6 +/- 4.6 g); assay type: organism-based; design: dose 1000 mg/kg, route oral; conditions: in vivo, 24 h
Rattus norvegicus [9] = experiment: Toxicity in Sprague-Dawley rat assessed as change in body weight at 500 mg/kg, po after 14 days (reference value: 199.1 +/- 4.8 g); assay type: organism-based; design: dose 500 mg/kg, route oral; conditions: in vivo, 336 h
Rattus norvegicus [10] = experiment: Toxicity in Sprague-Dawley rat assessed as change in body weight at 2000 mg/kg, po after 1 day (reference value: 130.6 +/- 4.6 g); assay type: organism-based; design: dose 2000 mg/kg, route oral; conditions: in vivo, 24 h
Rattus norvegicus [11] = experiment: Toxicity in Sprague-Dawley rat assessed as change in body weight at 500 mg/kg, po after 10 days (reference value: 175.9 +/- 5.1 g); assay type: organism-based; design: dose 500 mg/kg, route oral; conditions: in vivo, 240 h
Rattus norvegicus [12] = experiment: Toxicity in Sprague-Dawley rat assessed as change in body weight at 1000 mg/kg, po after 5 days (reference value: 148.4 +/- 3.2 g); assay type: organism-based; design: dose 1000 mg/kg, route oral; conditions: in vivo, 120 h
Rattus norvegicus [13] = experiment: Toxicity in Sprague-Dawley rat assessed as change in body weight at 2000 mg/kg, po after 5 days (reference value: 148.4 +/- 3.2 g); assay type: organism-based; design: dose 2000 mg/kg, route oral; conditions: in vivo, 120 h
Rattus norvegicus [14] = experiment: Toxicity in Sprague-Dawley rat assessed as change in body weight at 2000 mg/kg, po after 10 days (reference value: 175.9 +/- 5.1 g); assay type: organism-based; design: dose 2000 mg/kg, route oral; conditions: in vivo, 240 h
Rattus norvegicus [15] = experiment: Toxicity in Sprague-Dawley rat assessed as change in body weight at 500 mg/kg, po after 5 days (reference value: 148.4 +/- 3.2 g); assay type: organism-based; design: dose 500 mg/kg, route oral; conditions: in vivo, 120 h
[16] = Apparent permeability from apical to basolateral side in mouse bEND.3 /rat C6 co-culture cell model after 1 hr by Transwell assay; assay type: ADME
[17] = AUC (0 to 24 hrs) in ICR mouse brain at 10 mg/kg, iv; assay type: ADME, organism-based; design: time < 24 hr, dose 10 mg/kg, route intravenous
[18] = Half life in ICR mouse plasma at 10 mg/kg, iv; assay type: ADME, organism-based; design: dose 10 mg/kg, route intravenous
[19] = Cmax in ICR mouse brain at 20 mg/kg, po; assay type: ADME, organism-based; design: dose 20 mg/kg, route oral
[20] = Tmax in ICR mouse plasma at 10 mg/kg, iv; assay type: ADME, organism-based; design: dose 10 mg/kg, route intravenous
[21] = Cmax in ICR mouse plasma at 10 mg/kg, iv; assay type: ADME, organism-based; design: dose 10 mg/kg, route intravenous
[22] = AUC (0 to 24 hrs) in ICR mouse plasma at 10 mg/kg, iv; assay type: ADME, organism-based; design: time < 24 hr, dose 10 mg/kg, route intravenous
[23] = Half life in ICR mouse plasma at 20 mg/kg, po; assay type: ADME, organism-based; design: dose 20 mg/kg, route oral
[24] = Acute toxicity in po dosed Sprague-Dawley rat assessed as mortality after 14 days; assay type: organism-based; conditions: in vivo
[25] = AUC (0 to 24 hrs) in ICR mouse plasma at 20 mg/kg, po; assay type: ADME, organism-based; design: time < 24 hr, dose 20 mg/kg, route oral
Mus musculus [26] = experiment: Ratio of drug level in brain to plasma in ICR mouse at 10 mg/kg, iv […]; conditions: in vivo
[27] = Cmax in ICR mouse plasma at 20 mg/kg, po; assay type: ADME, organism-based; design: dose 20 mg/kg, route oral
[28] = AUC (0 to 24 hrs) in ICR mouse brain at 20 mg/kg, po; assay type: ADME, organism-based; design: time < 24 hr, dose 20 mg/kg, route oral
[29] = Half life in ICR mouse brain at 10 mg/kg, iv; assay type: ADME, organism-based; design: dose 10 mg/kg, route intravenous
[30] = Half life in ICR mouse brain at 20 mg/kg, po; assay type: ADME, organism-based; design: dose 20 mg/kg, route oral
[31] = Tmax in ICR mouse brain at 20 mg/kg, po; assay type: ADME, organism-based; design: dose 20 mg/kg, route oral
Mus musculus [32] = experiment: Ratio of drug level in brain to plasma in ICR mouse at 20 mg/kg, po […]; conditions: in vivo
[33] = Tmax in ICR mouse plasma at 20 mg/kg, po; assay type: ADME, organism-based; design: dose 20 mg/kg, route oral
[34] = Oral bioavailability in ICR mouse at 20 mg/kg; assay type: ADME, organism-based; conditions: in vivo
[35] = Cmax in ICR mouse brain at 10 mg/kg, iv; assay type: ADME, organism-based; design: dose 10 mg/kg, route intravenous
[36] = Tmax in ICR mouse brain at 10 mg/kg, iv; assay type: ADME, organism-based; design: dose 10 mg/kg, route intravenous

Row | SMILES | Activity (Rattus norvegicus [1]) | inhibition [2] | Activity (Rattus norvegicus [3]) [g] | inhibition at 10 µM (hERG (KCNH2)) [%] | Activity (Mus musculus [4]) [%] | Activity (Rattus norvegicus [5]) [g] | Activity (Rattus norvegicus [6]) [g] | Activity (Rattus norvegicus [7]) [g] | Activity (Rattus norvegicus [8]) [g] | Activity (Rattus norvegicus [9]) [g] | Activity (Rattus norvegicus [10]) [g] | Activity (Rattus norvegicus [11]) [g] | Activity (Rattus norvegicus [12]) [g] | Activity (Rattus norvegicus [13]) [g] | Activity (Rattus norvegicus [14]) [g] | Activity (Rattus norvegicus [15]) [g] | Papp A→B at 1 h [16] [×10⁻⁶ cm/s] | also measured
1 | CNc1ccc(/C=C/c2cccc(/C=C/c3ccc(NC)c(OC)c3)c2)cc1OC | Non-toxic | – | – | – | – | – | – | – | – | – | – | – | – | – | – | – | – | –
2 | COc1cc(/C=C/C(=O)CC(=O)/C=C/c2ccc(O)c(OC)c2)ccc1O | – | Active | – | – | – | – | – | – | – | – | – | – | – | – | – | – | – | –
3 | NCCCS(=O)(=O)O [TRAMIPROSATE] | Non-toxic | – | 194.3 | 18 | 67.3 | 130.7 | 174.7 | 195.4 | 131.1 | 188 | 131.4 | 167.2 | 149.6 | 147.2 | 171.5 | 145.3 | – | –
4 | COC(=O)c1ccccc1-c1c2ccc(=N)cc-2oc2cc(N)ccc12.Cl [RHODAMINE123] | – | – | – | – | – | – | – | – | – | – | – | – | – | – | – | – | 32 | –
5 | COc1cc(/C=C/c2cccc(/C=C/c3ccc(N(C)C)c(OC)c3)c2)ccc1N(C)C | – | Active | 174.6 | 14 | 70 | 131.5 | 164.2 | 182.2 | 132 | 183.9 | 132.4 | 164.1 | 138.9 | 128.3 | 157.8 | 142.6 | 670 | AUC(0-t) at 24 h [17]: 8100 ng·h/mL; half-life [18]: 438 min; Cmax [19]: 395 ng/mL; Tmax [20]: 4.8 min; Cmax [21]: 13100 ng/mL; AUC(0-t) at 24 h [22]: 31600 ng·h/mL; half-life [23]: 564 min; LD50 at 336 h [24]: > 2000 mg/kg; AUC(0-t) at 24 h [25]: 29200 ng·h/mL; Drug uptake (Mus musculus [26]): 26%; Cmax [27]: 3490 ng/mL; AUC(0-t) at 24 h [28]: 4530 ng·h/mL; half-life [29]: 362 min; half-life [30]: 870 min; Tmax [31]: 4.7 h; Drug uptake (Mus musculus [32]): 15%; Tmax [33]: 1 h; bioavailability [34]: 46.2%; Cmax [35]: 1410 ng/mL; Tmax [36]: 24 min
